Assay results: ChEMBL document CHEMBL1150454, “Synthesis, bioactivity, and DNA-cleaving ability of desferrioxamine B-nalidixic acid and anthraquinone carboxylic acid conjugates” (Bioorg Med Chem Lett, 1995); call rule not given here
Values after ≈ are worked out from the molar mass of the structure shown.

How the values were obtained:
Format in all cases: functional, organism-based
Plasmodium falciparum [1] = assay: In vitro antimalarial activity against Plasmodium falciparum D6
Plasmodium falciparum [2] = assay: In vitro antimalarial activity against Plasmodium falciparum W2
Plasmodium falciparum [3] = assay: In vitro antimalarial activity against Plasmodium falciparum W2; Not significant
Plasmodium falciparum [4] = assay: In vitro antimalarial activity against Plasmodium falciparum D6; Not significant

| SMILES | IC50 (Plasmodium falciparum [1]) | IC50 (Plasmodium falciparum [2]) | IC50 (Plasmodium falciparum [3]) | IC50 (Plasmodium falciparum [4]) |
| --- | --- | --- | --- | --- |
| CCn1cc(C(=O)NCCCCCN(O)C(=O)CCC(=O)NCCCCCN(O)C(=O)CCC(=O)NCCCCCN(O)C(C)=O)c(=O)c2ccc(C)nc21 | ~0.6 µg/mL (≈ 0.774 µM) | ~0.6 µg/mL (≈ 0.774 µM) |  |  |
| CC(=O)N(O)CCCCCNC(=O)CCC(=O)N(O)CCCCCNC(=O)CCC(=O)N(O)CCCCCNC(=O)c1ccc2c(c1)C(=O)c1ccccc1C2=O |  |  | Not Active | Not Active |
